Measurements published in patent EP4755887A1, “POLYCYCLIC FUSED-RING BTK DEGRADATION AGENT AND USE THEREOF IN MEDICINE” (Haisco Pharmaceutical Group Co., Ltd., priority 2023, dated 2025).
Read-outs that look alike come from different tables or passages of the source.

Experiments:
BTK L528W = BTK L528W (Homo sapiens, UniProt Q06187, L528W)
Caco2 permeability test = type: in vitro ADME; settings: human, Caco-2 monolayer, pH 7.4
Procedure: In the experiment, a monolayer of Caco-2 cells was used, and incubated in triplicate in a 96-well Transwell plate. A transport buffer solution (HBSS, 10 mM HEPES, pH 7.4 ± 0.05) containing the compound of the present invention (2 µM) or the control compound digoxin (10 µM), nadolol (2 µM) or metoprolol (2 µM) was added to the administration end hole on the apical side or basal side. A DMSO-containing transport buffer solution was added to the corresponding receiving end hole. After incubation for 2 hours at 37°C ± 1°C, the cell plate was removed, and an appropriate amount of samples was taken from both the apical side and basal side and transferred to a new 96-well plate. Subsequently, acetonitrile containing an internal standard was added to precipitate the protein. The samples were analysed using LC MS/MS, and the concentrations of the compound of the present invention and the control compound were determined. Concentration data were used to calculate apparent permeability coefficients for transport from the apical side to the basal side, and from the basal side to the apical side of the cell monolayer, and thus to calculate the efflux ratio. The integrity of the cell monolayer after 2 hours of incubation was evaluated by leakage of Lucifer Yellow.

TMD-8 cells = assay: TMD-8 cell proliferation inhibitory activity test; type: cell-based; settings: Homo sapiens, TMD8, 72 hours, CellTiter-Glo, read-out: IC50 values for inhibiting TMD-8 cell proliferation
Procedure: TMD-8 is a human lymphoma cell line that expresses BTK protein and is used to evaluate the efficacy of compounds. […] The cells were seeded into a 96-well culture plate (Biosharp, BS-MP-96W) at a density of 3,000 cells per well. […] Following incubation, 50 µL of a detection solution (CellTiter-Glo®, Promega, G7573) was added to each well, and the plate was uniformly mixed for 2 minutes and incubated at room temperature for 10 minutes. The chemiluminescence reading was then measured using a microplate reader (Molecular Devices, SpectraMax Paradigm). The inhibition rate of cell proliferation by the compounds was calculated according to Equation (1), where RLU compound represents the readout from the compound-treated well, RLU control represents the readout from the DMSO vehicle control well, and RLU blank represents the readout from the cell-free well. Data analysis was performed using Graphpad Prism 8.0 software. The concentration-response curve was generated by fitting the data to a four-parameter equation, and the IC50 values for the compound's inhibition of cell proliferation were calculated. Inh% = 100%−(RLUcompound−RLUblank)/(RLUcontrol−RLUblank)*100% [formula] Table 1. IC50 values for inhibiting TMD-8 cell proliferation

BTK = BTK (Homo sapiens, UniProt Q06187); assay: Detection of BTK degradation in Mino cells; type: cell-based; settings: read-out: DC50 values for BTK degradation in Mino cells
BTK, sequence (Q06187 whole entry): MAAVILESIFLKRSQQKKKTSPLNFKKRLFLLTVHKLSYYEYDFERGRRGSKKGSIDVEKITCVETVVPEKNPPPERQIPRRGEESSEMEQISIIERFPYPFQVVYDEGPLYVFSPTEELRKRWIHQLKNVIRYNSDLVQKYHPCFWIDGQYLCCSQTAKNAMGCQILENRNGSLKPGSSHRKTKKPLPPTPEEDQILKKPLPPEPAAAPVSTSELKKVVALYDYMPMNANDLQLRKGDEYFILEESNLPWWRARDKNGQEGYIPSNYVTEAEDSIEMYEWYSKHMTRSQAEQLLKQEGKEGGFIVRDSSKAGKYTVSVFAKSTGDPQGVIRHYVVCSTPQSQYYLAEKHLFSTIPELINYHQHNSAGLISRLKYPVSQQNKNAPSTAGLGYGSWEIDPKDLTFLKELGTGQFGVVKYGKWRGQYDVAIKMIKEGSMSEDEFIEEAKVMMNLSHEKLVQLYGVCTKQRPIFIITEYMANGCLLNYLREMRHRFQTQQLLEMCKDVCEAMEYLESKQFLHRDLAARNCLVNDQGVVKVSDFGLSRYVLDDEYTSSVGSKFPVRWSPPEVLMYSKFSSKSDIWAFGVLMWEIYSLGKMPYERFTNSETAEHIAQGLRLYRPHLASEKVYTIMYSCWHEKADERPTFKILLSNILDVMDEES

[1] = Pharmacokinetic test in rats; type: in vivo; settings: male, SD, rat, plasma, po, i.g. (10 mg/kg)
Procedure: Experimental objective: In this experiment, a single dose of the test compound was administered to SD rats via intravenous administration and intragastric gavage, and the concentration of the test compound in plasma of the rats was measured to evaluate the pharmacokinetic profile of the test compound in the rats.
Experimental animals: Male SD rats, 200-220 g, 6-8 weeks old, 6 rats/compound, purchased from Chengdu Ddossy Experimental Animals Co., Ltd.
Experimental method: On the day of the experiment, 6 SD rats were randomly grouped according to their body weights. The animals were fasted with water available for 12 to 14 h one day before the administration, and were fed 4 h after the administration.
Sampling: Before and after the administration, 0.06-0.15 mL of blood was taken from the orbits under isoflurane anaesthesia, and placed in an EDTAK2 centrifuge tube. Centrifugation was carried out at 5000 rpm at 4°C for 10 min, and the plasma was collected.
The plasma collection time points for PO groups were 0, 5 min, 15 min, 30 min, 1 h, 2 h, 4 h, 7 h, 24 h, and 48 h.
The plasma collection time points for IV groups were 0, 5 min, 15 min, 30 min, 1 h, 2 h, 4 h, 7 h, and 24 h.
Before analysis and detection, all samples were stored at -60°C. The samples were analysed quantitatively by LC-MS/MS.

[2] = 5 nM concentration, REC-1 BTK L528W cells, 6 hours
[3] = Mino cells, 6 hours, automated western blot

BTK L528W, sequence (Q06187 whole entry L528W): as the sequence (Q06187 whole entry) above, with L528W counted along it

In the case of `NC(=O)c1nnc(N2CCC[C@@H](N3CCN(CC4CC4)C3=O)C2)nc1Nc1ccc(N2CCC(CN3CCN4c5cc(F)c(C6CCC(=O)NC6=O)cc5CC[C@H]4C3)CC2)cc1` (some centres unmarked) [Trifluoroacetate of compound 93], the “BTK degradation rate %” value (BTK L528W; [2]) is reported as >70%.
`CN1CCN([C@@H]2CCCN(c3cnc(C(N)=O)c(Nc4ccc(C5CCN(CC6CCN(c7ccc(C(=O)N[C@H]8CCC(=O)NC8=O)nc7)CC6)CC5)cc4)n3)C2)C1=O` [Control compound 1, reference compound] showed a Papp A→B at 2 h, 2 µM (Caco2 permeability test) of 0.101 ×10⁻⁶ cm/s, a Papp B→A at 2 h, 2 µM (Caco2 permeability test) of 5.27 ×10⁻⁶ cm/s and an efflux ratio at 2 h, 2 µM (Caco2 permeability test) of 52.5.
For `CN1CCN([C@@H]2CCCN(c3cnc(C(N)=O)c(Nc4ccc(N5CCC(CN6CCN7c8cc(F)c(C9CCC(=O)NC9=O)cc8CC[C@@H]7C6)CC5)cc4)n3)C2)C1=O` (some centres unmarked) [Compound 12], the “BTK degradation rate %” value (BTK L528W; [2]) was >90%, the IC50 (TMD-8 cells) was < 20 nM and the DC50 (BTK; [3]) was < 10 nM. The Papp A→B at 2 h, 2 µM (Caco2 permeability test) was 1.18 ×10⁻⁶ cm/s, the Papp B→A at 2 h, 2 µM (Caco2 permeability test) was 4.71 ×10⁻⁶ cm/s and the efflux ratio at 2 h, 2 µM (Caco2 permeability test) was 3.99.
With `CN1CCN([C@@H]2CCCN(c3cnc(C(N)=O)c(Nc4ccc(N5CCC6(CC5)CC(N5CCN7c8cc(F)c(C9CCC(=O)NC9=O)cc8CC[C@H]7C5)C6)cc4)n3)C2)C1=O` (some centres unmarked) [Compound 31] the DC50 (BTK; [3]) was < 10 nM.
With `CN1CCN([C@@H]2CCCN(c3cnc(C(N)=O)c(Nc4ccc(N5CCC(CN6CCN7c8cc(F)c(C9CCC(=O)NC9=O)cc8CC[C@H]7C6)C(F)(F)C5)cc4)n3)C2)C1=O` (single isomer, unassigned) [Compound 29] the DC50 (BTK; [3]) was < 10 nM.
In the case of `CN1CCN([C@@H]2CCCN(c3cnc(C(N)=O)c(Nc4ccc(N5CCC(CN6CCN7c8cc(F)c(C9CCC(=O)NC9=O)cc8CC[C@H]7C6)CC5)cc4)n3)C2)C1=O` (some centres unmarked) [Compound 11], the IC50 (TMD-8 cells) is reported as < 20 nM, the bioavailability ([1]; Vehicle 1) is reported as > 50% and the AUC(0-t) ([1]; Vehicle 1) is reported as > 1000 ng·h/mL. The DC50 (BTK; [3]) was < 10 nM, the Papp A→B at 2 h, 2 µM (Caco2 permeability test) was 1.75 ×10⁻⁶ cm/s and the Papp B→A at 2 h, 2 µM (Caco2 permeability test) was 3.74 ×10⁻⁶ cm/s. The efflux ratio at 2 h, 2 µM (Caco2 permeability test) was 2.14.
In the case of `CN1CCN([C@@H]2CCCN(c3cnc(C(N)=O)c(Nc4ccc(N5CCC(N6CCN7c8cc(F)c(C(=O)N[C@H]9CCC(=O)NC9=O)cc8CC[C@H]7C6)CC5)cc4)n3)C2)C1=O` [Trifluoroacetate of compound 36], the DC50 (BTK) is reported as < 10 nM.
With `CN1CCN([C@@H]2CCCN(c3cnc(C(N)=O)c(Nc4ccc(N5CCC6(CC5)CC(N5CCN7c8cc(F)c(C(=O)N[C@H]9CCC(=O)NC9=O)cc8CC[C@H]7C5)C6)cc4)n3)C2)C1=O` [Compound 34] the “BTK degradation rate %” value (BTK L528W) was >90% and the DC50 (BTK) was < 10 nM.
For `CN1CCN([C@@H]2CCCN(c3cnc(C(N)=O)c(Nc4ccc(N5CCC6(CC5)CC(CN5CCN7c8cc(F)c(C9CCC(=O)NC9=O)cc8CC[C@H]7C5)C6)cc4)n3)C2)C1=O` (some centres unmarked) [Compound 14], the AUC(0-t) ([1]; Vehicle 2) was > 1000 ng·h/mL, the DC50 (BTK; [3]) was < 10 nM and the Papp A→B at 2 h, 2 µM (Caco2 permeability test) was 0.35 ×10⁻⁶ cm/s. For the same compound, the Papp B→A at 2 h, 2 µM (Caco2 permeability test) was 0.867 ×10⁻⁶ cm/s and the efflux ratio at 2 h, 2 µM (Caco2 permeability test) was 2.47.
For `CN1CCN([C@@H]2CCCN(c3nnc(C(N)=O)c(Nc4ccc(N5CCC(CN6CCN7c8cc(F)c(C9CCC(=O)NC9=O)cc8CC[C@@H]7C6)CC5)c(F)c4)n3)C2)C1=O` (some centres unmarked) [Compound 77], the “BTK degradation rate %” value (BTK L528W; [2]) was >90%, the AUC(0-t) ([1]; Vehicle 2) was > 1000 ng·h/mL and the Papp A→B at 2 h, 2 µM (Caco2 permeability test) was 0.984 ×10⁻⁶ cm/s. The Papp B→A at 2 h, 2 µM (Caco2 permeability test) was 4.89 ×10⁻⁶ cm/s and the efflux ratio at 2 h, 2 µM (Caco2 permeability test) was 4.97.
In the case of `CN1CCN([C@@H]2CCCN(c3nnc(C(N)=O)c(Nc4ccc(N5CCC(CN6CCN7c8cc(F)c(C(=O)N[C@H]9CCC(=O)NC9=O)cc8CC[C@@H]7C6)CC5)cc4)n3)C2)C1=O` [Compound 47], the “BTK degradation rate %” value (BTK L528W) is reported as >90% and the DC50 (BTK) is reported as < 10 nM.
In the case of `[2H]C([2H])([2H])N1CCN([C@@H]2CCCN(c3nnc(C(N)=O)c(Nc4ccc(N5CCC(CN6CCN7c8cc(F)c(C(=O)N[C@H]9CCC(=O)NC9=O)cc8CC[C@@H]7C6)CC5)cc4)n3)C2)C1=O` [Compound 61], the “BTK degradation rate %” value (BTK L528W) is reported as >90% and the DC50 (BTK) is reported as < 10 nM.
In the case of `CN1CCN([C@@H]2CCCN(c3cnc(C(N)=O)c(Nc4ccc(N5CCC(CN6CCN7c8cc(F)c(C9CCC(=O)NC9=O)cc8CC[C@H]7C6)C(F)(F)C5)cc4)n3)C2)C1=O` (single isomer, unassigned) [Compound 30], the DC50 (BTK; [3]) is reported as < 10 nM.
With `NC(=O)c1nnc(N2CCC[C@@H](N3CCN(C4CC4)C3=O)C2)nc1Nc1ccc(N2CCC(CN3CCN4c5cc(F)c(C6CCC(=O)NC6=O)cc5CC[C@H]4C3)CC2)cc1` (some centres unmarked) [Compound 89] the “BTK degradation rate %” value (BTK L528W; [2]) was >80%.
With `CN1CCN([C@@H]2CCCN(c3cnc(C(N)=O)c(Nc4ccc(N5CCC6(CC5)CC(N5CCN7c8cc(F)c(C9CCC(=O)NC9=O)cc8CC[C@@H]7C5)C6)cc4)n3)C2)C1=O` (some centres unmarked) [Compound 32] the DC50 (BTK; [3]) was < 10 nM.
In the case of `[2H]C([2H])([2H])N1CCN([C@@H]2CCCN(c3cnc(C(N)=O)c(Nc4ccc(N5CCC(CN6CCN7c8cc(F)c(N9CCC(=O)NC9=O)cc8CC[C@@H]7C6)CC5)cc4)n3)C2)C1=O` [Compound 66], the “BTK degradation rate %” value (BTK L528W) is reported as >80% and the DC50 (BTK) is reported as < 10 nM.
With `COCCN1CCN([C@@H]2CCCN(c3cnc(C(N)=O)c(Nc4ccc(N5CCC(CN6CCN7c8cc(F)c(C9CCC(=O)NC9=O)cc8CC[C@H]7C6)CC5)cc4)n3)C2)C1=O` (some centres unmarked) [Compound 84] the “BTK degradation rate %” value (BTK L528W; [2]) was >70%.
In the case of `COCCN1CCN([C@@H]2CCCN(c3nnc(C(N)=O)c(Nc4ccc(N5CCC(CN6CCN7c8cc(F)c(C9CCC(=O)NC9=O)cc8CC[C@H]7C6)CC5)cc4)n3)C2)C1=O` (some centres unmarked) [Compound 82], the “BTK degradation rate %” value (BTK L528W; [2]) is reported as >85%.
For `[2H]C([2H])([2H])N1CCN([C@@H]2CCCN(c3cnc(C(N)=O)c(Nc4ccc(N5CCC(CN6CCN7c8cc(F)c(C(=O)N[C@H]9CCC(=O)NC9=O)cc8CC[C@@H]7C6)CC5)cc4)n3)C2)C1=O` [Compound 68], the “BTK degradation rate %” value (BTK L528W) was >90% and the DC50 (BTK) was < 10 nM.
For `CN1CCN([C@@H]2CCCN(c3cnc(C(N)=O)c(Nc4ccc(N5CCC6(CC5)CC(CN5CCN7c8cc(F)c(C(=O)N[C@H]9CCC(=O)NC9=O)cc8CC[C@@H]7C5)C6)cc4)n3)C2)C1=O` [Compound 50], the DC50 (BTK) was < 10 nM.
In the case of `COCCN1CCN([C@@H]2CCCN(c3nnc(C(N)=O)c(Nc4ccc(N5CCC(CN6CCN7c8cc(F)c(C9CCC(=O)NC9=O)cc8CC[C@H]7C6)CC5)c(F)c4)n3)C2)C1=O` (some centres unmarked) [Compound 83], the “BTK degradation rate %” value (BTK L528W; [2]) is reported as >85%.
With `CN1CCN([C@@H]2CCCN(c3cnc(C(N)=O)c(Nc4ccc(N5CCC(CN6CCN7c8cc(F)c(N9CCC(=O)NC9=O)cc8CC[C@@H]7C6)CC5)cc4)n3)C2)C1=O` [Compound 22] the AUC(0-t) ([1]; Vehicle 2) was > 1000 ng·h/mL, the DC50 (BTK; [3]) was < 10 nM and the Papp A→B at 2 h, 2 µM (Caco2 permeability test) was 2.38 ×10⁻⁶ cm/s. For the same compound, the Papp B→A at 2 h, 2 µM (Caco2 permeability test) was 4.44 ×10⁻⁶ cm/s and the efflux ratio at 2 h, 2 µM (Caco2 permeability test) was 1.87.
With `CN1CCN([C@@H]2CCCN(c3cnc(C(N)=O)c(Nc4ccc(N5CCC(CN6CCN7c8cc(F)c(C9CCC(=O)NC9=O)cc8CC[C@@H]7C6)C(F)(F)C5)cc4)n3)C2)C1=O` (single isomer, unassigned) [Compound 28] the DC50 (BTK; [3]) was < 10 nM.
In the case of `[2H]C([2H])([2H])N1CCN([C@@H]2CCCN(c3cnc(C(N)=O)c(Nc4ccc(N5CCC(CN6CCN7c8cc(F)c(C(=O)N[C@H]9CCC(=O)NC9=O)cc8CC[C@H]7C6)CC5)cc4)n3)C2)C1=O` [Compound 67], the “BTK degradation rate %” value (BTK L528W) is reported as >90% and the DC50 (BTK) is reported as < 10 nM.
With `CN1CCN([C@@H]2CCCN(c3cnc(C(N)=O)c(Nc4ccc(N5CCC(CN6CCN7c8cc(F)c(C9CCC(=O)NC9=O)cc8CC[C@@H]7C6)C(F)(F)C5)cc4)n3)C2)C1=O` (single isomer, unassigned) [Compound 27] the DC50 (BTK; [3]) was < 10 nM.
